Results on 19 molecules are retold here after patent US20230312583A1, “1H-IMIDAZO [4,5-H] QUINAZOLINE COMPOUND AS NOVEL SELECTIVE FLT3 INHIBITORS” (SHENGKE PHARMACEUTICALS (JIANGSU) LTD., priority 2020, published 2023).

Holding throughout (type): biochemical
Details in all cases: 10 μM ATP

In one assay the target is CDK4/cyclin D1 (Homo sapiens (Human), UniProt P11802). Nature of the assay: Radiometric 33P-ATP kinase inhibition assay, CDK4/cyclin. The method, then:
(§1) Reactions were carried out in the presence of 10 μM ATP.
(§2) Procedures: • 1. Compounds were prepared in freshly prepared reaction buffers containing 20 mM HEPES (pH 7.5), 10 mM MgCl2, 1 mM EGTA, 0.01% Brij35, 0.02 mg/ml, BSA, 0.1 mM Na3VO4, 2 mM DTT, and 1% DMSO. • 2. […] Kinase such as 10 ng of recombinant CDK4/cyclin D1 (Life Technologies PV4204) diluted in a kinase buffer (20 mM Tris pH7.5, 10 mM MgCl2, 0.01% NP-40, 2 mM DTT), and incubated at room temperature for 30 minutes together with indicated concentration of inhibitors. • 4. Compounds in DMSO were added into the kinase reaction mixture utilizing acoustic technology (Echo550). • 5. 33P-ATP (specific activity 0.01 μCi/μl final) was added into the reaction mixture to initiate the reaction. • 6. The reaction mixture was incubated for 120 minutes at room temperature. • 7. […] Filters were extensively washed with 0.75% phosphoric acid. • 9. The radioactive phosphorylated substrate remaining on the filter paper was measured.
(§3) Kinase activity data were expressed as the percent remaining kinase activity in test samples compared to vehicle (dimethyl sulfoxide) reactions. IC50 values and curve fits were obtained using Prism4 Software (GraphPad).

A further assay concerns the target C-Klt (Homo sapiens (Human), UniProt P10721). Nature of the assay: Radiometric 33P-ATP kinase inhibition assay, C-Klt. As to the method: as §1, §2, §3
The target of another assay is CDK2/cyclin E (Homo sapiens (Human), UniProt P24941). Nature of the assay: Radiometric 33P-ATP kinase inhibition assay, CDK2/cyclin E. As to the method:
as §1, §2, §3

In the next assay the target is CDK6/cyclin D1 (Homo sapiens (Human), UniProt Q00534). Nature of the assay: Radiometric 33P-ATP kinase inhibition assay, CDK6/cyclin D1. The method, then:
as §1, §2, §3

For another assay, the target named is CDK1/cyclin B (Homo sapiens (Human), UniProt P06493). The assay can be described thus: Radiometric 33P-ATP kinase inhibition assay, CDK1/cyclin B. As to the method:
as §1, §2, §3

CDK4/cyclin D1, sequence (P11802 whole entry): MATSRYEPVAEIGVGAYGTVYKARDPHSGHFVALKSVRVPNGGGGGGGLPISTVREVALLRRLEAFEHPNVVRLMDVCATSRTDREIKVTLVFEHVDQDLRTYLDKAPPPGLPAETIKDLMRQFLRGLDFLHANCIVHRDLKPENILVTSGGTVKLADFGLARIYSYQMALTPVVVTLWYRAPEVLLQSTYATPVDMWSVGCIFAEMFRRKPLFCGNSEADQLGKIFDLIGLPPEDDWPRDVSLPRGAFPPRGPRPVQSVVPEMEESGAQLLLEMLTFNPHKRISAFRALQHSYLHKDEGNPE
CDK4/cyclin D1, sequence (P24385 whole entry partner): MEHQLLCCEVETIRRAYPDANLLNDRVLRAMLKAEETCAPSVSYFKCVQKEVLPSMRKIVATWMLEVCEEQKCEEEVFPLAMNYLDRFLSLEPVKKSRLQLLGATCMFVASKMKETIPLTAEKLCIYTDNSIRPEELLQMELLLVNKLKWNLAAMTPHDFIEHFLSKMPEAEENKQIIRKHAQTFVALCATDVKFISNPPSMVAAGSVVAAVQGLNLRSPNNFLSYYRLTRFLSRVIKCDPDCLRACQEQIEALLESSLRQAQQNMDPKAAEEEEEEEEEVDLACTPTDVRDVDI
C-Klt, sequence (P10721 26-976): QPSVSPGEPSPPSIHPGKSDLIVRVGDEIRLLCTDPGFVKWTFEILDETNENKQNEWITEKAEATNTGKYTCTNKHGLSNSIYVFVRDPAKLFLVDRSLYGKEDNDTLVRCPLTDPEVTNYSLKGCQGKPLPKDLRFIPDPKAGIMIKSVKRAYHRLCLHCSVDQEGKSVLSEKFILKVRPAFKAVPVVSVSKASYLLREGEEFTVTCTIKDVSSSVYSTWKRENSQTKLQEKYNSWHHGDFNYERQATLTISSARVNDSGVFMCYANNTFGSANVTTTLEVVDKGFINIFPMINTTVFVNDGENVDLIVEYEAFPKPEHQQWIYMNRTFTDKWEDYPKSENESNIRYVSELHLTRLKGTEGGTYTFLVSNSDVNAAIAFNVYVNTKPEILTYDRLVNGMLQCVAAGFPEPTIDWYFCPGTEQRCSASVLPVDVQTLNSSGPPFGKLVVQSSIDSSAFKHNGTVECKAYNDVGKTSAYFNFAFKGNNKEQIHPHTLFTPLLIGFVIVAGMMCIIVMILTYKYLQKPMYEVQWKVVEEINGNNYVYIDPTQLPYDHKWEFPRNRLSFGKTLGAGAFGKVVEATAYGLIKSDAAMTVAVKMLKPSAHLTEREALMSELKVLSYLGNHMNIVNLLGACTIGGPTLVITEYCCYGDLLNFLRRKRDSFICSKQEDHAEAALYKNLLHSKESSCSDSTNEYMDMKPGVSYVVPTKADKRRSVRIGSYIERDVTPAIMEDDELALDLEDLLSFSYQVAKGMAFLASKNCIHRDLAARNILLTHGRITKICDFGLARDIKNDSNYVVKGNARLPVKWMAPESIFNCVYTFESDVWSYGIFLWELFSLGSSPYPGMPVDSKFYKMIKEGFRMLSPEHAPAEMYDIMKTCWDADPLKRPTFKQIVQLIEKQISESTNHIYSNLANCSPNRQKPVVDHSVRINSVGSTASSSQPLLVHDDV
CDK1/cyclin B, sequence (P06493 whole entry, species assumed): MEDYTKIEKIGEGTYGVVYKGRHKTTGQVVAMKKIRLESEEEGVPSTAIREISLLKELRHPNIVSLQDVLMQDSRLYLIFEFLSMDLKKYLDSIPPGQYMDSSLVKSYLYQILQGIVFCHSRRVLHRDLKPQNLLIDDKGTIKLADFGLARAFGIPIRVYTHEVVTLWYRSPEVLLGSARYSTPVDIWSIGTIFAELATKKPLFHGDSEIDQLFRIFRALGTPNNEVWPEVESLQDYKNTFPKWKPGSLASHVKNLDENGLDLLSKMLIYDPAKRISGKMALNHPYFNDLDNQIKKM
CDK1/cyclin B, sequence (P14635 whole entry partner, species assumed): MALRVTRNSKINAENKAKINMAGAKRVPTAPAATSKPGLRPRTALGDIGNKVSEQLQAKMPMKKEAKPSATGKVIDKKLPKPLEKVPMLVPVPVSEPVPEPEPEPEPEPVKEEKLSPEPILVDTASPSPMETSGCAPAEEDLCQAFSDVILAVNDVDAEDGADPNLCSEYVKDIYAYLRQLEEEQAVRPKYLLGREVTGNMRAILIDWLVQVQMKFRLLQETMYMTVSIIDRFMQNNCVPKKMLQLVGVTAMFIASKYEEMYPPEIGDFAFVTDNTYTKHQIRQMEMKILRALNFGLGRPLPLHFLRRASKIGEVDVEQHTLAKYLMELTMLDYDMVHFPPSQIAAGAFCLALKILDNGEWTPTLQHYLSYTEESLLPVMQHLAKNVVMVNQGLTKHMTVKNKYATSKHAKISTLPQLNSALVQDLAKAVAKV
CDK6/cyclin D1, sequence (Q00534 whole entry, species assumed): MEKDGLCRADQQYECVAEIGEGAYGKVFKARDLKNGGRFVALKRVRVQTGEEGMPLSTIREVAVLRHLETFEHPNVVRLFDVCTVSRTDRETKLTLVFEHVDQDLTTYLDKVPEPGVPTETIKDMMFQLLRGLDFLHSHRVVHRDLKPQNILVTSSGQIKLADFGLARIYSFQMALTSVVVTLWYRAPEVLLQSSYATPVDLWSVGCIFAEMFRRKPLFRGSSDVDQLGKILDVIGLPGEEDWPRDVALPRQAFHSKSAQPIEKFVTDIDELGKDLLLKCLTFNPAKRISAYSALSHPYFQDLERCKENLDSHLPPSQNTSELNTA
CDK6/cyclin D1, sequence (P24385 whole entry partner, species assumed): as the sequence (P24385 whole entry partner) above

With `CC(C)n1cnc2ccc3cnc(Nc4cc(Oc5ccccc5)c(N5CCNCC5)cn4)nc3c21` [Compound I-14], the IC50 against CDK4/cyclin D1 is 46.1 nM; at C-Klt, 70.9 nM; against CDK2/cyclin E, 436 nM.

`CC(C)n1cnc2ccc3cnc(Nc4cc(OCCF)c(N5CC6CC(C5)N6)cn4)nc3c21` [Compound I-9]: the concentration for half-maximal inhibition (IC50) at CDK4/cyclin D1 worked out at 39.5 nM; at C-Klt, 15 nM; at CDK6/cyclin D1, 22.5 nM; against CDK2/cyclin E, 91.1 nM.

On to `CNC1CN(c2cnc(Nc3ncc4ccc5ncn(C(C)C)c5c4n3)cc2OC)C1` [Compound I-6], for which the IC50 was 245 nM against CDK4/cyclin D1, 94.7 nM at C-Klt and above 500 nM on CDK2/cyclin E.

In the case of `CC(C)n1cnc2ccc3cnc(Nc4cc(OCC5CC5)c(N5CCNCC5)cn4)nc3c21` [Compound I-10], the concentration for half-maximal inhibition (IC50) is 451 nM at CDK1/cyclin B, 292 nM on CDK4/cyclin D1, 111 nM against C-Klt and above 500 nM at CDK2/cyclin E.

`CC(C)Oc1cc(Nc2ncc3ccc4ncn(C)c4c3n2)ncc1N1CCNCC1` [IV-1, N-(4-isopropoxy-5-(piperazin-1-yl)pyridin-2-yl)-1-methyl-1H-imidazo[4,5-h]quinazolin-8-amine]: the IC50 against C-Klt came to 137 nM.

`COc1cc(Nc2ncc3ccc4ncn(C(C)C)c4c3n2)ncc1NCC1COC(=O)N1C` (stereo not shown) [Compound I-15]: the IC50 was 267 nM against CDK4/cyclin D1, 118 nM at C-Klt and above 500 nM against CDK2/cyclin E.

Regarding `COc1cc(Nc2ncc3ccc4ncn(C(C)C)c4c3n2)ncc1N1C2CCC1CNC2` [Compound I-11], the values for the IC50 against CDK4/cyclin D1, against C-Klt and on CDK2/cyclin E were 98.3 nM, 29.8 nM and above 500 nM, respectively.

Regarding `COc1cc(Nc2ncc3ccc4ncn(C(C)C)c4c3n2)ncc1N1CCN(C)CC1` [Compound I-1], the IC50 at CDK4/cyclin D1 worked out at 61 nM; against C-Klt it was 32.1 nM; against CDK2/cyclin E, 189 nM.

Turning to `COc1cc(Nc2ncc3ccc4ncn(C(C)C)c4c3n2)ncc1N1CC2CCC1CN2` (stereo not shown) [Compound I-12], the IC50 against CDK4/cyclin D1 was found to be 66 nM; at C-Klt, 15 nM; at CDK2/cyclin E it was 301 nM.

As to `CCOc1cc(Nc2ncc3ccc4ncn(C(C)C)c4c3n2)ncc1N1CCN(C)CC1` [Compound I-7], the figures for the IC50 against CDK4/cyclin D1, on C-Klt and against CDK2/cyclin E were 99.1 nM, 31.5 nM and above 500 nM, respectively.

Take `CCOc1cc(Nc2ncc3ccc4ncn(C(C)C)c4c3n2)ncc1N1CCOCC1` [Compound I-8]: the half-maximal inhibitory concentration (IC50) against CDK4/cyclin D1 was above 500 nM; against C-Klt, 89.1 nM; against CDK2/cyclin E, above 500 nM.

Take `CC#CCOc1cc(Nc2ncc3ccc4ncn(C(C)C)c4c3n2)ncc1N1CCNCC1` [Compound I-13]: at CDK4/cyclin D1, it took 109 nM to reach half-maximal inhibition (IC50).

Take `COc1cc(Nc2ncc3ccc4ncn(C(C)C)c4c3n2)ncc1N1CC2(COC2)C1` [Compound I-3]: the IC50 is 186 nM at CDK4/cyclin D1, 60.6 nM on C-Klt and 46.9 nM on CDK2/cyclin E.

Turning to `COc1cc(Nc2ncc3ccc4nc(C)n(C(C)C)c4c3n2)ncc1N1CCOCC1` [VI-1, 1-isopropyl-N-(4-methoxy-5-morpholinopyridin-2-yl)-2-methyl-1H-imidazo[4,5-h]quinazolin-8-amine], the IC50 against CDK1/cyclin B is 397 nM; at CDK4/cyclin D1, 245 nM; against C-Klt, 46 nM; on CDK2/cyclin E it was 89.1 nM.

For the molecule `CCOc1cc(Nc2ncc3ccc4ncn(CC)c4c3n2)ncc1N1CCN(CC)CC1` [Compound V-1, N-(4-ethoxy-5-(4-ethylpiperazin-1-yl)pyridin-2-yl)-1-ethyl-1H-imidazo[4,5-h]quinazolin-8-amine], the values for the IC50 against CDK4/cyclin D1 and at C-Klt were 221 nM and 21.3 nM, respectively.

For the molecule `CCN1CCN(c2cnc(Nc3ncc4ccc5ncn(C(C)C)c5c4n3)cc2OC)CC1` [Compound I-2, N-(5-(4-ethylpiperazin-1-yl)-4-methoxypyridin-2-yl)-1-isopropyl-1H-imidazo[4,5-h]quinazolin-8-amine], the figures for the IC50 against CDK4/cyclin D1 and against CDK2/cyclin E were 66.8 nM and 162 nM, respectively.

In the case of `COc1cc(Nc2ncc3ccc4ncn(C(C)C)c4c3n2)ncc1N1CCNC(C)(C)C1` [Compound I-5], the IC50 on CDK4/cyclin D1 came out at 95 nM; against C-Klt, 25.6 nM; at CDK2/cyclin E it was 483 nM.

For the molecule `COc1cc(Nc2ncc3ccc4ncn(C(C)C)c4c3n2)ncc1N1CC2(CNC2)C1` [Compound I-4], the IC50 worked out at 52.9 nM at CDK4/cyclin D1, 16.6 nM on C-Klt and 69.5 nM against CDK2/cyclin E.

In the case of `COc1cc(Nc2ncc3cc(C)c4ncn(C(C)C)c4c3n2)ccc1N1CCOCC1` [II-1, 1-isopropyl-N-(3-methoxy-4-morpholinophenyl)-4-methyl-1H-imidazo[4,5-h]quinazolin-8-amine], the IC50 against C-Klt is 75.1 nM.
